Results on four compounds are retold here after US20120230914A1, “LABELING COMPOUND FOR PET” (RIKEN, priority 2009, published 2012).

Data set [1] is described as follows: Reuptake of labeled metabolite: HPLC of blood and brain extracts after tail vein injection. The class given is in vivo. The conditions noted are these: male rats, brain sampled 5, 10 and 20 min after injection. As to the method:
5, 10 and 20 min after the injection, bloods were sampled from aorta adbominalis and then the brains were taken out and homogenized. Acetonitrile was added to the bloods and homogenated brains and the resultants were subjected to centrifugation, and extracts were subjected to HPLC in order to measure labeled metabolites.
Data for “Monkey” shown in FIG. 8 was obtained by sampling vein blood along with PET imaging, centrifuging the sampled vein blood, adding acetonitrile to the blood plasma and centrifuging the blood plasma, and subjecting the extract to HPLC to measure parent compound in the blood plasma.

Data set [2] relates to aromatase. As to the kind of experiment: PET measurement (binding potential images and SUV in brain regions). The conditions noted are these: for temporal change in SUV (standardized uptake value) in the latter part of scanning: Rhesus macaques, cerebellum, amygdala, hypothalamus, nucleus accumbens.
Experimental: (§1) (i) Male Rhesus macaques were subjected to PET measurement. Specifically, Rhesus macaques were put under sedation with ketalar (10 mg/kg), and intravenous catheters for RI administration were attached to their legs. Thereafter, the Rhesus macaques were anesthetized using propofol (10 mg/kg/h), and were immobilized in a PET scanner.
(§2) After reconstructing images, binding potential (BP) images with cerebellum as a reference region were constructed. The binding potential used herein indicates a value obtained by dividing an association rate constant by a dissociation rate constant.
(§3) SUV is a value obtained by dividing radioactivity density per 1 ml of tissue by radioactivity density per 1 g of body weight, i.e. SUV=radioactivity density per 1 ml of tissue/radioactivity density per 1 g of body weight.
The target in data set [3] is T1, aromatase (Macaca mulatta, UniProt A0A1D5QZ23).
T1 sequence (A0A1D5QZ23 1-503): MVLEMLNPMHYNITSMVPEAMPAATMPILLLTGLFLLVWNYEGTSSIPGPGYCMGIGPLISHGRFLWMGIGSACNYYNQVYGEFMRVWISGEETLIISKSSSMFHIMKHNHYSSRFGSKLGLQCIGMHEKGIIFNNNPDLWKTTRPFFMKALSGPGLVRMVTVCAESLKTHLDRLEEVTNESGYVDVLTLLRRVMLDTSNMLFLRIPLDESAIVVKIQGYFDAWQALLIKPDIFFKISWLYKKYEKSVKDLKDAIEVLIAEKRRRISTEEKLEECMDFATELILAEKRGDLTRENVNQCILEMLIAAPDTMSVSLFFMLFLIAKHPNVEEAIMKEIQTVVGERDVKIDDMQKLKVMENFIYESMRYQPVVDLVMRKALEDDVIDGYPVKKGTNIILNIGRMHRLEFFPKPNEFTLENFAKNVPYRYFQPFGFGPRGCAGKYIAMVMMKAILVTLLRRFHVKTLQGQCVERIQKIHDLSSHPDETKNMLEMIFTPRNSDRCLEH
The description is as above. The following applies: for specific binding in amygdala (binding potential images): male Rhesus macaques, i.v. 33 MBq/kg, 90 min scan, cerebellum as reference region; for binding potential (difference among the compounds): Rhesus macaques, relative to Compounds (10), (22), (33), (39).
Experimental: as §1, §2, §3

The target in data set [4] is T1, aromatase. As to the kind of experiment: Replacement test with non-radiolabeled vorozole (PET binding potential). Format: in vivo. Details: allows quantifying aromatase in the brain with higher accuracy; from tissue; host or cells: brain of living male Rhesus macaques (amygdala, hypothalamus, nucleus accumbens). The conditions noted are these: Rhesus macaques; after non-radiolabeled VOR 100 μg/kg; compared with VOR. The procedure: 5 min before administration of the Compound (10), non-radiolabeled vorozole (VOR) (100 μg/kg) was administered, and binding potential (BP) of Rhesus macaques were observed.

The target of data set [5] is T2, aromatase (Rattus norvegicus, UniProt P22443).
T2 construct: from tissue; host or cells: rat ovary homogenate (female rats)
T2 sequence (P22443 1-508): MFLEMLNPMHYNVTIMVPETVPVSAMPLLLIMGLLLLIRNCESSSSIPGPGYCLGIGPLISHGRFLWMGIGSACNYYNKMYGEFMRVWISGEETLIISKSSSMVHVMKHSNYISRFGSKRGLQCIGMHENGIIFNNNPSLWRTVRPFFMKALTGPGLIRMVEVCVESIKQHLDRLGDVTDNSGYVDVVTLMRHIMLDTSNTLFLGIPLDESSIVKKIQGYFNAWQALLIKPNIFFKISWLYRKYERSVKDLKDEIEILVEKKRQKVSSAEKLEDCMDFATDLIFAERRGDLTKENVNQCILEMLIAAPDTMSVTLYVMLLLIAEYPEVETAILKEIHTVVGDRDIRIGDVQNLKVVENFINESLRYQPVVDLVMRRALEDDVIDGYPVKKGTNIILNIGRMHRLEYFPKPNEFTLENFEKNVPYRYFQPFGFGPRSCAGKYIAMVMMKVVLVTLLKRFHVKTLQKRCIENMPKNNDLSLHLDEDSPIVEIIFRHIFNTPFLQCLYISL
Kind of data set: In vitro binding test (ligand saturation, Scatchard plot analysis). Details: species or system rats. As to the method:
Specifically, female rats were anesthetized with diethyl ether, and 0.01 M phosphate buffered saline (PBS, pH 7.4) was perfused via hearts. Ovaries of the rats were removed immediately and homogenized in 1 mL of a 0.32 M sucrose solution.
After filtration, counting was performed by a γ counter, and the average of KD was calculated by Scatchard plot analysis.

As to `[11CH3]c1ccc(CN(c2ccc(C#N)cc2)n2cnnc2)cc1` [Compound (10), 4-{(4-[^11C]Methylbenzyl)(4H-1,2,4-triazol-4-yl)amino}benzonitrile], the “reuptake of labeled metabolite into the brain” value in data set [1] was “such reuptake was not observed”. Moreover, the “temporal change in SUV (standardized uptake value) in the latter part of scanning” value (“temporal change in SUV” below) in the data set on aromatase [2] is reported as “decreases as time passes”. Further, in the data set on aromatase [2] (male Rhesus macaques, compared to conventional [11C]vorozole), the “nonspecific binding of the labeled compound to cerebral cortex etc.” value is given as “decreased”. Also, on aromatase [3], the “specific binding in amygdala (binding potential images)” value (“specific binding in amygdala” below) is “specific binding was observed in amygdala”. Also, the “amount of replaced binding (considered nonspecific binding)” value on aromatase [4] is “smaller amount of replaced binding than the case of VOR”. For the same compound, at aromatase [5] (from KD values), the “affinity relative to VOR” value was “approximately twice higher affinity than VOR”. In addition, the dissociation constant (Kd) at aromatase [5] (homogenized rat ovaries, room temperature, 30 min, nonspecific binding with 1 μM non-radiolabeled VOR, read-out: dissociation constant (KD)) worked out at 0.3 nM.

Turning to `[11CH3]c1cccc(CN(c2ccc(C#N)cc2)n2cnnc2)c1` [Compound (22), 4-{(3-[^11C]Methylbenzyl)(4H-1,2,4-triazol-4-yl)amino}benzonitrile], the “temporal change in SUV” value in the data set with aromatase [2] was “decreases as time passes”. Further, on aromatase [3], the “binding potential (difference among the compounds)” value is on record as “relatively low binding potential” and the “specific binding in amygdala” value is recorded as “specific binding was observed in amygdala”.

Consider `[11CH3]c1ccc(CN(c2ccc([N+](=O)[O-])cc2)n2cnnc2)cc1` [Compound (33), 4-{(4-[^11C]Methylbenzyl)(4H-1,2,4-triazol-4-yl)amino}nitrobenzene], for which the “temporal change in SUV” value in the data set on aromatase [2] is “decreases as time passes”. Moreover, the “specific binding in amygdala” value on aromatase [3] is “specific binding was observed in amygdala”.

Turning to `[11CH3]c1ccc(CN(c2ccc(C#N)cc2)n2cncn2)cc1` [Compound (39), 4-{(4-[^11C]Methylbenzyl)(1H-1,2,4-triazol-1-yl)amino}benzonitrile], in the data set on aromatase [2], the “temporal change in SUV” value was “decreases as time passes”. Moreover, at aromatase [3], the “binding potential (difference among the compounds)” value is given as “relatively high binding potential” and the “specific binding in amygdala” value is given as “specific binding was observed in amygdala”.
